Experimental data: PubChem BioAssay (NCI)
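The compound was tested at five concentrations on cells cultured in 96-well plates, with a 48-hour exposure period. GI50: concentration for 50% inhibition of growth. TGI is the concentration that stops growth completely.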

Assays:
Assay in all cases: NCI-60 cell line screen, 48 h
[1] = tested on: RPMI-8226 leukemia
[2] = tested on: OVCAR-8 ovarian
[3] = tested on: NCI-H226 lung
[4] = tested on: HL-60(TB) leukemia
[5] = tested on: UACC-62 melanoma
[6] = tested on: SNB-19 CNS
[7] = tested on: PC-3 prostate
[8] = tested on: HOP-92 NSCLC
[9] = tested on: UACC-257 melanoma
[10] = tested on: SF-295 CNS

In the case of `CC1=NN(c2cc(Cl)c(S(=O)(=O)O)cc2Cl)C2(C1)C(Cl)C(=O)N2c1nc2ccccc2s1` (stereo not drawn), the TGI [1] was greater than 100 µM, the TGI [2] was greater than 100 µM and the TGI [3] was greater than 100 µM. The TGI [4] was greater than 100 µM, the TGI [5] was greater than 100 µM and the TGI [6] was greater than 100 µM. For the same compound, the TGI [7] was greater than 100 µM, the TGI [8] was greater than 100 µM and the TGI [9] was greater than 100 µM.
`O=C(O)C1C2OC(C(Br)C2Br)C1C(=O)O` (stereo not drawn) was tested, and the TGI [1] was greater than 100 µM, the TGI [2] was greater than 100 µM and the TGI [3] was greater than 100 µM. For the same compound, the TGI [4] was greater than 100 µM, the TGI [10] was greater than 100 µM and the TGI [5] was greater than 100 µM. For the same compound, the TGI [6] was greater than 100 µM, the TGI [7] was greater than 100 µM and the TGI [9] was greater than 100 µM.
`CCOC(=O)/C=C(/OCC)[C@@H]1C(C(=O)c2ccc(Cl)cc2)[C@@H]1/C(=C\C(=O)OCC)OCC` (stereo partly drawn) gave a TGI [1] greater than 23.1 µM, a TGI [2] greater than 100 µM and a TGI [3] greater than 100 µM. For the same compound, the TGI [4] was 37.5 µM, the TGI [10] was greater than 88.9 µM and the TGI [5] was greater than 100 µM. The TGI [6] was greater than 100 µM, the TGI [7] was greater than 100 µM and the TGI [8] was 17.9 µM. The TGI [9] was greater than 100 µM.
`CC[P+](c1ccccc1)(N(C)C)N(C)C` was tested, and the TGI [1] was greater than 100 µM, the TGI [2] was greater than 100 µM and the TGI [3] was greater than 100 µM. It also gave a TGI [4] greater than 100 µM, a TGI [10] greater than 100 µM and a TGI [5] greater than 100 µM. For the same compound, the TGI [6] was greater than 100 µM, the TGI [7] was greater than 100 µM and the TGI [8] was greater than 100 µM. It also gave a TGI [9] greater than 100 µM.
For `CCOC(=O)/C(=C/c1cn(C(C)=O)c2ccccc12)P(=O)(OC)OC`, the TGI [1] was 50.7 µM, the TGI [2] was greater than 100 µM and the TGI [4] was 48.4 µM. The TGI [10] was greater than 100 µM, the TGI [7] was greater than 100 µM and the TGI [8] was greater than 100 µM. It also gave a TGI [9] of 41.5 µM.
`C[C@]12CC[C@H]3[C@@H](CCC4=C/C(=N/OCCN5CCCCC5)CC[C@@]43C)[C@@H]1CC[C@@H]2O` was tested, and the TGI [1] was 24.9 µM, the TGI [2] was greater than 100 µM and the TGI [3] was 48.4 µM. It also gave a TGI [4] of 8.05 µM, a TGI [10] of 29.3 µM and a TGI [6] of 18.5 µM. For the same compound, the TGI [7] was 45.6 µM and the TGI [9] was 37.3 µM.
Compound `CN(CC(=O)O)c1ncc2c(n1)-c1ccccc1CC2` has a TGI [1] greater than 100 µM, a TGI [2] greater than 100 µM and a TGI [3] greater than 100 µM. The TGI [4] was greater than 100 µM, the TGI [10] was greater than 100 µM and the TGI [5] was greater than 100 µM. It also gave a TGI [6] greater than 100 µM, a TGI [7] greater than 100 µM and a TGI [8] greater than 100 µM. The TGI [9] was greater than 100 µM.
`CCOC(=O)NCC(=O)NCC(=O)NCC(N)=O` gave a TGI [1] greater than 100 µM, a TGI [2] greater than 100 µM and a TGI [3] greater than 100 µM. It also gave a TGI [10] greater than 100 µM, a TGI [5] greater than 100 µM and a TGI [6] greater than 100 µM. The TGI [7] was greater than 100 µM and the TGI [9] was greater than 100 µM.
For `COC(=O)c1c2c(cc3c1CC1(Cc4cc5c(cc4C1)CCCC5)C3)CCCC2`, the TGI [1] was greater than 100 µM, the TGI [2] was greater than 100 µM and the TGI [4] was greater than 100 µM. For the same compound, the TGI [10] was greater than 100 µM, the TGI [5] was greater than 100 µM and the TGI [7] was greater than 100 µM. For the same compound, the TGI [8] was greater than 100 µM and the TGI [9] was greater than 100 µM.
`COc1ccccc1-c1cc(=O)c2cccnc2[nH]1` gave a TGI [1] greater than 100 µM, a TGI [2] greater than 100 µM and a TGI [3] greater than 100 µM. For the same compound, the TGI [4] was greater than 100 µM, the TGI [10] was greater than 100 µM and the TGI [5] was greater than 100 µM. The TGI [6] was greater than 100 µM, the TGI [7] was greater than 100 µM and the TGI [8] was 60.2 µM. The TGI [9] was greater than 100 µM.
With `C=C(CCC(=O)N(CCc1c[nH]c2ccccc12)C(=O)c1ccccc1CSCC)C(=O)OC` the TGI [1] was greater than 100 µM, the TGI [2] was greater than 100 µM and the TGI [3] was greater than 100 µM. For the same compound, the TGI [4] was greater than 100 µM, the TGI [10] was greater than 100 µM and the TGI [5] was greater than 100 µM. The TGI [6] was greater than 100 µM, the TGI [7] was greater than 100 µM and the TGI [8] was greater than 100 µM. The TGI [9] was greater than 100 µM.
Work on `O=c1c2ccccc2n2nnc3ccc(NCCNCCO)c1c32` yielded a TGI [1] of 13.7 µM, a TGI [2] of 4.74 µM and a TGI [3] of 5.06 µM. It also gave a TGI [4] of 5.24 µM, a TGI [10] of 9.82 µM and a TGI [5] of 8.68 µM. It also gave a TGI [6] of 17.7 µM, a TGI [7] of 4.89 µM and a TGI [8] of 6.18 µM. The TGI [9] was 12.3 µM.
Compound `COc1cc(C2C3=C(NC(=O)C2C#N)c2ccc4ccccc4c2OCC3)cc(OC)c1OC` (stereo not drawn) has a TGI [1] greater than 100 µM, a TGI [2] greater than 100 µM and a TGI [4] greater than 100 µM. For the same compound, the TGI [10] was greater than 100 µM, the TGI [6] was greater than 100 µM and the TGI [7] was greater than 100 µM. The TGI [8] was 29.7 µM and the TGI [9] was greater than 100 µM.
In the case of `CCOC(=O)CSc1nc(-c2ccc(Cl)cc2)c(C#N)c(=O)[nH]1`, the TGI [1] was greater than 100 µM, the TGI [2] was greater than 100 µM and the TGI [3] was greater than 100 µM. The TGI [4] was 71.9 µM, the TGI [10] was greater than 100 µM and the TGI [5] was greater than 100 µM. For the same compound, the TGI [6] was greater than 100 µM, the TGI [7] was greater than 100 µM and the TGI [8] was greater than 100 µM. It also gave a TGI [9] greater than 100 µM.
`Cc1cc(C)n(C(=CC(=O)C(Cl)Cl)n2nc(C)cc2C)n1` was tested, and the TGI [1] was 3.69 µM, the TGI [2] was 21.3 µM and the TGI [3] was 2.56 µM. For the same compound, the TGI [4] was 18.1 µM, the TGI [10] was 31.7 µM and the TGI [5] was 7.84 µM. The TGI [6] was 41.3 µM, the TGI [7] was 29.5 µM and the TGI [8] was 24.2 µM. For the same compound, the TGI [9] was 4.97 µM.
`CC(=O)CCN1CC2CN=NC2(C#N)C1` (stereo not drawn) gave a GI50 [1] greater than 100 µM, a TGI [1] greater than 100 µM and a TGI [2] greater than 100 µM. It also gave a TGI [3] greater than 70 µM, a TGI [4] greater than 62.6 µM and a TGI [10] greater than 100 µM. It also gave a TGI [5] greater than 100 µM, a TGI [6] greater than 100 µM and a TGI [7] greater than 100 µM. The TGI [8] was greater than 76.3 µM and the TGI [9] was greater than 100 µM.
With `O=c1[nH]c2ccccc2c(=O)n1/N=C\c1ccccc1O` the TGI [1] was greater than 100 µM, the TGI [3] was greater than 100 µM and the TGI [4] was greater than 100 µM. It also gave a TGI [10] greater than 100 µM, a TGI [5] greater than 100 µM and a TGI [6] greater than 100 µM. The TGI [7] was greater than 100 µM, the TGI [8] was greater than 100 µM and the TGI [9] was greater than 100 µM.
`Clc1ccc(-c2nn3c(COc4ccc(OCc5nnc6sc(-c7ccc(Cl)cc7)nn56)c(Cl)c4)nnc3s2)cc1` gave a TGI [1] greater than 100 µM, a TGI [2] of 75 µM and a TGI [3] greater than 100 µM. For the same compound, the TGI [4] was 36 µM, the TGI [10] was greater than 100 µM and the TGI [5] was greater than 100 µM. For the same compound, the TGI [6] was 31.7 µM, the TGI [7] was greater than 100 µM and the TGI [8] was 37.8 µM. It also gave a TGI [9] greater than 100 µM.
For `Nc1ccc2c3c1cccc3c(=O)n1c3ccc(Cc4ccc5c(c4)nc4c6ccc(N)c7cccc(c(=O)n54)c76)cc3nc21`, the TGI [1] was greater than 100 µM, the TGI [2] was greater than 100 µM and the TGI [3] was greater than 100 µM. For the same compound, the TGI [4] was greater than 100 µM, the TGI [10] was greater than 100 µM and the TGI [5] was greater than 100 µM. It also gave a TGI [6] greater than 100 µM, a TGI [7] greater than 100 µM and a TGI [8] greater than 100 µM. It also gave a TGI [9] greater than 100 µM.
Compound `CN(C)CCCNC(=O)N/N=C/c1ccccn1` has a TGI [1] greater than 10 µM, a TGI [2] greater than 10 µM and a TGI [4] greater than 10 µM. It also gave a TGI [10] greater than 10 µM, a TGI [5] greater than 10 µM and a TGI [7] greater than 10 µM. It also gave a TGI [8] greater than 10 µM and a TGI [9] greater than 10 µM.
In the case of `c1ccc(CN2CCC(CNc3ncnc4ccccc34)C2)cc1` (stereo not drawn), the TGI [1] was 38.7 µM, the TGI [2] was greater than 100 µM and the TGI [3] was greater than 100 µM. It also gave a TGI [4] greater than 100 µM, a TGI [10] greater than 100 µM and a TGI [5] greater than 100 µM. For the same compound, the TGI [6] was greater than 100 µM, the TGI [7] was greater than 100 µM and the TGI [8] was greater than 100 µM.
Work on `CC(C)(C)c1cc(C(C)(C)C)c2sc(=O)oc2c1O` yielded a TGI [1] greater than 100 µM, a TGI [2] of 31.2 µM and a TGI [3] of 36.2 µM. The TGI [4] was 19.6 µM, the TGI [10] was 23.9 µM and the TGI [6] was 32.2 µM. It also gave a TGI [7] of 28 µM, a TGI [8] of 30.8 µM and a TGI [9] of 20.2 µM.
